The text below walks through data of patent US12239713B2, “Degradable polyethylene glycol conjugate” (NOF CORPORATION, priority 2018, dated 2025).

Where no end group is shown, it is not given here.

This experiment relates to blood calcium concentration. Kind of experiment: Evaluation of physiological activity of PEGylated salmon calcitonin (blood calcium concentration). It is filed as in vivo, Mouse Balb/c. As to conditions: sCT dose 40 μg/kg, blood at 1, 3, 6, 24 hr, compared to saline (PBS) group, FIG. 10. As for the experimental part: The method for evaluating the physiological activity of a bio-related substance bonded to a degradable polyethylene glycol derivative is not particular limited. For example, when the bio-related substance is insulin, blood sugar concentration is measured, and when it is calcitonin, blood calcium concentration is measured, by periodically collecting blood from the animal that received administration and measuring the substance in the blood by using an appropriate analytical instrument, and the like, based on which the evaluation can be performed. Specifically, in the case of insulin, a glucose measurement kit is used to monitor a decrease in glucose concentration after administration and, in the case of calcitonin, a decrease in calcium concentration after administration is monitored using a calcium measurement kit, based on which the evaluation can be performed.
The physiological activities of 4 groups of ME-200GLFG (SEQ ID NO: 4) (L)-200-sCT which is SCT to which degradable polyethylene glycol derivative with a molecular weight of 40,000 is bonded and obtained in Example 16, methoxy PEG 40 kDa-sCT bonded to nondegradable methoxy PEG 40 kDa, unmodified sCT, and saline were comparatively evaluated in animal experiments. […]

On to “salmon calcitonin (CSNLSTCVLGKLSQELHKLQTYPRTNTGSGTP; ends and bridges not checked; cysteine pairing not given here) [Unmodified sCT]”, for which the “calcium concentration in blood (in words)” value is “showed an increase in calcium concentration 6 hr after administration”.
